PMC3951249 (Bioorganic & medicinal chemistry letters, 2014)
Blank lines part the entries; values can stand above or below the compound they belong to.

Tests used:
[1] = fraction unbound in human plasma; format: in vitro ADME; settings: fu (hum)
[2] = tested on: prepulse inhibition (PPI) of the rodent acoustic startle response; test: prepulse inhibition; format: in vivo; settings: rat, 30 mg/kg p.o.
[3] = brain tissue distribution study; format: in vivo; settings: rat
[4] = tested on: 68 GPCRs, ion channels and transporters; test: Eurofin Lead Profiling panel of radioligand binding assays; settings: @10 μM, 68 targets
stability in rat plasma = format: in vitro ADME; settings: 4 hours at 37 °C
GlyT2 = molecular target: T1, GlyT2 (Homo sapiens, UniProt Q9Y345); test: GlyT2 inhibition; format: cell-based
T1 sequence (Q9Y345 1-797): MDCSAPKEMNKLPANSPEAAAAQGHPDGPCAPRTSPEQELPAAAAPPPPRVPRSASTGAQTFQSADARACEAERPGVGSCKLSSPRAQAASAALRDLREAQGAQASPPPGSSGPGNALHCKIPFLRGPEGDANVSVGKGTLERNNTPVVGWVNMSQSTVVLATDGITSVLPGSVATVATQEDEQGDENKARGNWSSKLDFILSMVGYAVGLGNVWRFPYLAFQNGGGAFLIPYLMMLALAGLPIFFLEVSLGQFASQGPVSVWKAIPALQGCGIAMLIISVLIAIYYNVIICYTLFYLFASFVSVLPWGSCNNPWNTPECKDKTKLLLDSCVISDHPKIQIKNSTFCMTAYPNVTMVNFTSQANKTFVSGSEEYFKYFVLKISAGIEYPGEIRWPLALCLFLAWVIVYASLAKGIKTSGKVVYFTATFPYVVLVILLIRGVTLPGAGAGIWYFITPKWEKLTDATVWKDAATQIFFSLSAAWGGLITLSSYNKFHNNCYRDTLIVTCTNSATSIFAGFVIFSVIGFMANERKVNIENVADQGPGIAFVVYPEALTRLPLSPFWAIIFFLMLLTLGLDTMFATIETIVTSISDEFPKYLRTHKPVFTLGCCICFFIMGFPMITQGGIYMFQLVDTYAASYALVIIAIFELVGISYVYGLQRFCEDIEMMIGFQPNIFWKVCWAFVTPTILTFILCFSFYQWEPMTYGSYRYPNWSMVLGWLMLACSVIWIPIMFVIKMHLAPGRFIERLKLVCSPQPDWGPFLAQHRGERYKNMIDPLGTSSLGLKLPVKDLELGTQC

[5] = in vitro intrinsic clearance, rat; format: in vitro ADME; settings: from in vitro intrinsic clearance
CYP3A4 = CYP3A4 (Homo sapiens, UniProt P08684); test: CYP inhibition; format: in vitro ADME
[6] = in vitro intrinsic clearance, human; format: in vitro ADME; settings: from in vitro intrinsic clearance
GlyT1 [7] = molecular target: T2, GlyT1 (Homo sapiens, UniProt P48067); settings: ref 13-15 (1 and 2), ref 5-8 (NFPS); cited from earlier work
T2 sequence (P48067 1-706): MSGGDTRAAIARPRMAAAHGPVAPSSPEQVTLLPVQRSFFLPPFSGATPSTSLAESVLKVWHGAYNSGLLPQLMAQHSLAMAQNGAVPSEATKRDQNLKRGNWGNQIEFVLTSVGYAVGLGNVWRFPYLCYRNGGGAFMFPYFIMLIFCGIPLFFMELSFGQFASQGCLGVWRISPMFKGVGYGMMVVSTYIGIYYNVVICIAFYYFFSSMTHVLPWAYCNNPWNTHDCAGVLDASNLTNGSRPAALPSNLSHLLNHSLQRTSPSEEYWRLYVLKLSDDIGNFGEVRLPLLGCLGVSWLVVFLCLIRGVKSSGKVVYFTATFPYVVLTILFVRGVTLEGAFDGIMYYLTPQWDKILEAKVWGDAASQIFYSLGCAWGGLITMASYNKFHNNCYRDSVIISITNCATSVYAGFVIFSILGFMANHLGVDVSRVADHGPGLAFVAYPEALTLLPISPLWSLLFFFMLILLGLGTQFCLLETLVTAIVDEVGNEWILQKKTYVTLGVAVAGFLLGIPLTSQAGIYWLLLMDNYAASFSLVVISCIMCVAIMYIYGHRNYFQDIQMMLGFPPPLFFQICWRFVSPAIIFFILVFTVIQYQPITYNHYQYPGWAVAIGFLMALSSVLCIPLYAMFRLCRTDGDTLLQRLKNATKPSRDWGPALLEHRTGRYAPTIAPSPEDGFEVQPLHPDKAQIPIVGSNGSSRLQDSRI

GlyT1 [8] = molecular target: T2, GlyT1; test: GlyT1 inhibition, [14C]-glycine uptake assay; format: cell-based; settings: for loss in GlyT1 potency relative to piperidine analog: 4a vs 2, 4b vs 1
CYP (isoforms not named) = test: CYP profile; format: in vitro ADME
[9] = data reported for Merck's 2; cited from earlier work
GlyT1 [10] = molecular target: T2, GlyT1; settings: 30 mg/kg oral; cited from earlier work
[11] = data reported for Merck's 2; cited from earlier work; remark: listed apart in the source

CYP3A4, sequence (P08684 whole entry): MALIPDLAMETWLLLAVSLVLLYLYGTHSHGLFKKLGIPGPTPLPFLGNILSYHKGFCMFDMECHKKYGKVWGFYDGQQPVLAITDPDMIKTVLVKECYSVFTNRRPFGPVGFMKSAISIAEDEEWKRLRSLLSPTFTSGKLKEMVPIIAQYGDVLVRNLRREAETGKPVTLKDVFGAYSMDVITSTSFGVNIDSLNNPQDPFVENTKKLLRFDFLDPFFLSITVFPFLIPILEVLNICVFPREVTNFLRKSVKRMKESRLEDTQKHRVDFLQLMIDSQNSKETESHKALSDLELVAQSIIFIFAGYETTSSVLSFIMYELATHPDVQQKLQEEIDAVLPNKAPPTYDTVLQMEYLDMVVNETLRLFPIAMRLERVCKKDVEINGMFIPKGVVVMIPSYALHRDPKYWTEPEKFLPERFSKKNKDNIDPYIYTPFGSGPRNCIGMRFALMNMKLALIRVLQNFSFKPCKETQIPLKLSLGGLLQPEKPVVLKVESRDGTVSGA

fraction unbound [1]: 0.068 | brain AUC0-6hr ([3]; 10 mg/kg p.o. in 0.5% methocellulose): 0.956 µM·h | brain AUC0-6hr ([3]; 10 mg/kg s.c. in 10% tween 80): 0.431 µM·h | inhibition against any target in the panel [4]: ≤ 50% | stability in rat plasma (stability in rat plasma): stable | IC50 (GlyT2): > 30 µM | predicted hepatic clearance ClHEP [5]: 43.0 mL/min/kg | IC50 (CYP3A4): 14.9 µM | predicted hepatic clearance ClHEP [6]: 17.7 mL/min/kg
Structure (SMILES): Cn1cnc(S(=O)(=O)N2C[C@@H]3[C@H](C2)[C@@]3(CNC(=O)c2ccccc2C(F)(F)F)CC2CC2)c1 [Compound 12d]
effect on basal startle amplitude during no-stimulus trials [2]: no effect

Structure (SMILES): CCCS(=O)(=O)N1CCC(c2ccccc2)([C@H](C)NC(=O)c2ccc(Cl)cc2Cl)CC1 [Compound 1]
known mechanism of action with respect to glycine (GlyT1 [7]): competitive

mechanism of inhibition with respect to glycine (Eadie-Hoffstee plot) (GlyT1 [8]; [14C]-glycine transport, 40 nM 12c): competitive
Structure (SMILES): Cn1cnc(S(=O)(=O)N2C[C@@H]3[C@H](C2)[C@@]3(CNC(=O)c2c(Cl)cccc2Cl)CC2CC2)c1 [Compound 12c]

IC50 (CYP (isoforms not named)): > 30 µM
Structure (SMILES): Cn1cnc(S(=O)(=O)N2C[C@@H]3[C@H](C2)[C@@]3(CNC(=O)c2ccc(Cl)cc2Cl)c2ccccn2)c1 [Compound 10]

IC50 (CYP (isoforms not named)): > 30 µM
Structure (SMILES): Cn1cnc(S(=O)(=O)N2C[C@@H]3[C@H](C2)[C@@]3(CNC(=O)c2ccccc2C(F)(F)F)c2ccccn2)c1 [Compound 11]

loss in GlyT1 potency relative to piperidine analog (GlyT1 [8]): ~ 150 fold
Structure (SMILES): CCCS(=O)(=O)N1C[C@@H]2[C@H](C1)[C@@]2(CNC(=O)c1ccc(Cl)cc1Cl)CC1CC1 [Compound 4b]

loss in GlyT1 potency relative to piperidine analog (GlyT1 [8]): 50 fold
Structure (SMILES): CCS(=O)(=O)N1C[C@@H]2[C@H](C1)[C@@]2(CNC(=O)c1ccc(Cl)cc1Cl)CC1CC1 [Compound 4a]

Structure (SMILES): CCS(=O)(=O)N1CCC(CNC(=O)c2ccc(Cl)cc2Cl)(CC2CC2)CC1 [Compound 2]
clearance in dog [9]: low clearance | effect on basal startle amplitude during no-stimulus trials [2]: no effect | occupancy (GlyT1 [10]): > 90% | clearance in rat [11]: moderate to high clearance | known mechanism of action with respect to glycine (GlyT1 [7]): competitive
